Measurements from patent publication US7671230B2, “Derivatization and solubilization of insoluble classes of fullerenes” (TDA Research, Inc., priority 2001, dated 2010).
Values belong to the substance of their own block, whether it stands above or below them.

Tests used:
[1] = Solubility of fullerenic species and their derivatives in solvents; format: physicochemical; details: for solubility of derivative in organic solvents: common polar and non-polar organic solvents; for solubility class: both non-polar and polar solvents
Text: Insoluble fullerenes are any fullerenic species generated by any known method which are not soluble in solvents (common solvents, i.e., non-polar organic solvents, such as hydrocarbons and arenes and halogenated arenes, including toluene, benzene) commonly employed to solublize fullerenes, such as C60. Solubility (or lack thereof) of a given fullerenic species in a given solvent can be assessed by methods known in the art, e.g., by assessing how much of a fullerenic species can be extracted into a given amount of solvent, for example, using mass spectrometric methods as illustrated herein. The insoluble classes of fullerenes are also insoluble in polar solvents. […] Non-derivatized fullerenic species are in general not soluble in almost all polar solvents. However, fullerenic species, if soluble have an anomalously high solubility in polar chloro and bromo substituted arenes. As discussed herein and as is understood in the art certain classes of non-derivatized fullerenic species are soluble in non-polar solvents such as toluene and benzene.
The methods of this invention can be used to derivatize insoluble fullerenic species and related carbon nanotube species to make them soluble (or to enhance the solubility of given fullerenic species or carbon nanotubes). Derivatization reaction of this invention may render the derivatized species soluble (or enhance its solubility) in common non-polar solvents or it may render the derivatized species soluble (or enhance its solubility) in polar solvents. For purposes of this application, solubility is defined as the dissolution of free molecules (or salts) in the solvent with reversibility to remove the solvent to obtain the molecules (or salts) dissolved. In preferred cases, the solvent is readily removed by application of reduced pressure and/ or by non-destructive heating. A species may also be removed from solution by recrystallization, for example by addition of solvent in which the species is not soluble to the solution. Certain solvents may readily dissolve a given species, but may not be removable to regenerate the species that was dissolved or it may not be possible to recrystallize the species unchanged. For example, the solvent may only be partially removable or the solvent may have reacted with the species causing a chemical change or irreversible adduct formation.
In general, fullerenes have “low solubility” in all solvents compared to most organic compounds. […] C60 is insoluble in polar solvents like acetonitrile and methanol (no measurable amount dissolves). […] C60 is soluble in substituted naphthalenes (30 to 50 mg/mL). […] As noted above, insoluble classes of fullerenic species are also insoluble in polar solvents.

[2] = Air/water stability of derivatized materials (long-term stability of solutions, re-dissolution of exposed solids); format: physicochemical; details: presence of oxygen and/or water; no evidence for decomposition over several months time
[3] = aqueous; compared with conventional inorganic chelates; cited from earlier work
[4] = Aqueous-phase size-exclusion chromatography (SEC-HPLC), aggregation; format: physicochemical
Description: This derivatized metallofullerene, Gd@C60(C(COOCH2CH3)2)x, can be converted to a water-soluble species by de-esterification to carboxylic acid or carboxylate salt groups. This is performed by the method of Hirsch (Lamparth, 1994). The ester derivative (100 mg) is dissolved in toluene (15 mL) and vigorously stirred at reflux with excess solid NaH (100 mg) under argon for 2-3 hours. Next, methanol (3 mL) is added with stirring. Vigorous bubbling is observed, followed by precipitation of the sodium carboxylate salt of the Gd@C60 derivative. The solid is isolated, dissolved in water, and partially purified with dialysis tubing (MW cutoff˜500). The water is removed from an aqueous solution of the carboxylate with a rotary evaporator connected to a vacuum source; it is important to avoid decarboxylation by heating gently (<50° C.). Lowering the pH of aqueous solutions of the carboxylate salt can produce the acid form, which may have less water solubility depending on the number of acid groups present. […] Ion-exchange resin (Dowex-50, etc. etc.) can be used to change the counterion in Gd@C60(C(COONa)2)x to other alkali metals etc. or to hydrogen (proton) i.e. Gd@C60(C(COOH)2)x.

Substance: Gd@C60(C(COOCH2CH3)2)x
solubility of derivative in organic solvents [1]: solubility in a variety of common polar and non-polar organic solvents
stability in air / oxygen and water [2]: air-stable

Substance: Gd@C60(C(COOH)2)x
stability in air / oxygen and water [2]: air-stable

Substance: Gd@C82(OH)x
R1 relaxivity [3]: higher R1 values

Substance: ^166Ho@C60(C(COONa)2)x
water solubility [1]: water soluble

Substance: ^166Ho@C60(C(COOCH2CH3)2)x
solubility in THF after derivatization ([1]; tetrahydrofuran): soluble

Substance: C60(C33H48O12)
solubility of derivative in organic solvents [1]: solubility in a variety of common polar and non-polar organic solvents

The remaining lines, values ahead:

solubility class [1]: Insoluble
Substance: Gd@C60

solubility class [1]: Slightly Soluble
Substance: Gd@C82

aggregation state in aqueous solution [4]: not clustered in large aggregates
water solubility [1]: fully water-soluble
stability in air / oxygen and water [2]: air-stable
Substance: Gd@C60(C(COONa)2)x
